Assay results: patent US7825264B2, “Substituted heterocycles, their use as medicament, and pharmaceutical preparations comprising them” (sanofi-aventis, priority 2005, dated 2010)
pIC50: −log10 of the molar value.

What follows are compounds tested against T1, Human Kv1.5 channels (Homo sapiens, UniProt P22460) (assay: Activity on the Kv1.5 channel: two-microelectrode voltage clamp on Xenopus oocytes expressing Kv1.5). Details: human Kv1.5 expressed in Xenopus oocytes, room temperature, Hill equation; read-out: Kv1.5 IC-50.
T1 construct: expressed in transfected cells; host or cells: Xenopus laevis oocytes injected with RNA synthesized in vitro
T1 sequence (P22460 whole entry): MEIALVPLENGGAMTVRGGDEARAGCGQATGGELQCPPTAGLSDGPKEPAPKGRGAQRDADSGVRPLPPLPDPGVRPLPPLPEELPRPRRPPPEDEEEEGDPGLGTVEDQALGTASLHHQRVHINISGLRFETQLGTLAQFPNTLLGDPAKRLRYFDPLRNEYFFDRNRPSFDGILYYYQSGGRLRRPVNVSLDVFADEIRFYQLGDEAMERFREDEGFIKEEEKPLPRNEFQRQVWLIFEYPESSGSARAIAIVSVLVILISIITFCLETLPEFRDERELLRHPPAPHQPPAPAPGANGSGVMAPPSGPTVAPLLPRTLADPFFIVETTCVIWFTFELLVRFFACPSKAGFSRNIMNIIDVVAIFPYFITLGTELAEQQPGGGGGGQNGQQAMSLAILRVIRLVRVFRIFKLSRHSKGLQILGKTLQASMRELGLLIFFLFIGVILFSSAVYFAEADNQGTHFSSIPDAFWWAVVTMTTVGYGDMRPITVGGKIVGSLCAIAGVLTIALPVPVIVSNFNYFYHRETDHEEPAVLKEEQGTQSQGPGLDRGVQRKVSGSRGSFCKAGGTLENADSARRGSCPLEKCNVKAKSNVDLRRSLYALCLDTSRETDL
Type: cell-based
Protocol: Determination of the Activity on the Kv1.5 Channel
Human Kv1.5 channels were expressed in xenopus oocytes. For this purpose, firstly oocytes were isolated from Xenopus laevis and defolliculated. Kv1.5-encoding RNA synthesized in vitro was then injected into these oocytes. After Kv1.5 protein expression for 1-7 days, Kv1.5 currents were measured on the oocytes using the two-microelectrode voltage clamp technique. The Kv1.5 channels were in this case usually activated with voltage jumps lasting 500 ms to 0 mV and 40 mV. A solution of the following composition flowed through the bath: NaCl 96 mM, KCl 2 mM, CaCl2 1.8 mM, MgCl2 1 mM, HEPES 5 mM (titrated to pH 7.4 with NaOH). These experiments were carried out at room temperature. The following were employed for data acquisition and analysis: Geneclamp amplifier (Axon Instruments, Foster City, USA) and MacLab D/A converter and software (ADInstruments, Castle Hill, Australia). The substances of the invention were tested by adding them in various concentrations to the bath solution. The effects of the substances were calculated as percent inhibition of the Kv1.5 control current which was obtained when no substance was added to the solution. The data were then extrapolated using the Hill equation in order to determine the inhibitory concentrations IC50 for the respective substances.
For O=C1CCCCN1[C@@H](c1ccc(F)cc1)[C@@H](OCC1CC1)c1cccc2cccnc12 (racemic) [Example 1, 1-[(1R′,2S′)-2-Cyclopropylmethoxy-1-(4-fluorophenyl)-2-quinolin-8-ylethyl]-piperidin-2-one], the pIC50 was 5.85.
In the case of O=C1CCCN1[C@@H](c1ccc(F)cc1)[C@H](OCCCC(F)(F)F)c1cccnc1 (racemic) [Example 2, 1-[(1R′,2S′)-1-(4-Fluorophenyl)-2-pyridin-3-yl-2-(4,4,4-trifluorobutoxy)-ethyl]pyrrolidin-2-one], the pIC50 was 5.22.
O=C1CCCN1[C@@H](c1cccc2cccnc12)[C@H](OCC1CC1)c1ccc(F)cc1 (racemic) [Example 3, 1-[(1R′,2S′)-2-Cyclopropylmethoxy-2-(4-fluorophenyl)-1-quinolin-8-ylethyl]-pyrrolidin-2-one] was tested, and the pIC50 was 6.30.
O=C1CCCN1[C@@H](c1ccccn1)[C@H](OCC1CC1)c1ccccc1 (racemic) [Example 5, 1-[(1R′,2S′)-2-Cyclopropylmethoxy-2-phenyl-1-pyridin-2-ylethyl]pyrrolidin-2-one] was tested, and the pIC50 was 5.89.
Work on CCCO[C@@H](c1ccc(Cl)cc1)[C@@H](c1ccccc1)N1CCCC1=O (racemic) [Example 6, (1R′,2S′)-1-[2-(4-Chlorophenyl)-1-phenyl-2-propoxyethyl]pyrrolidin-2-one] yielded a pIC50 of 6.04.
With N#Cc1ccc(O[C@@H](c2cccc3cccnc23)[C@H](c2ccc(F)cc2)N2CCCC2=O)cc1 (racemic) [Example 10, 4-[(1R′,2R′)-2-(4-Fluorophenyl)-2-(2-oxopyrrolidin-1-yl)-1-quinolin-8-ylethoxy]benzonitrile] the pIC50 was 5.36.
With O=C1CCCN1[C@H](c1ccc(F)cc1)[C@@H](OCC1CC1)c1cccc2ccccc12 (racemic) [Example 11, 1-[(1S′,2R′)-2-Cyclopropylmethoxy-1-(4-fluorophenyl)-2-naphthalen-1-ylethyl]pyrrolidin-2-one] the pIC50 was 6.70.
In the case of O=C1CCCN1[C@H](c1ccc(F)cc1)[C@H](OCC1CC1)c1cccc2ccccc12 (racemic) [Example 12, 1-[(1R′,2R′)-2-Cyclopropylmethoxy-1-(4-fluorophenyl)-2-naphthalen-1-ylethyl]pyrrolidin-2-one], the pIC50 was 6.30.
In the case of CCCO[C@H](c1ccc(Cl)cc1)[C@H](c1ccccc1)N1CCCCC1=O (racemic) [Example 13], the pIC50 was 6.68.
For O=C1CCCCN1[C@@H](c1ccc(F)cc1)[C@H](OCC1CC1)c1ccc(F)c(F)c1 (racemic) [Example 14], the pIC50 was 6.48.
In the case of O=C1CCCN1[C@@H](c1cccnc1)[C@H](OCC1CC1)c1ccc(F)cc1 (racemic) [Example 16], the pIC50 was 6.10.
Cc1ccc([C@H]([C@H](OCC2CC2)c2ccc(F)cc2)N2CCCC2=O)s1 (racemic) [Example 17] gave a pIC50 of 6.52.
Compound CCCO[C@H](c1ccccc1)[C@@H](c1ccccc1)N1CCCC1=O (racemic) [Example 19] has a pIC50 of 6.52.
Work on CCCO[C@H](c1ccc(F)cc1)[C@H](c1ccccc1)N1CCCC1=O (racemic) [Example 20] yielded a pIC50 of 6.52.
Compound O=C1CCCN1[C@H](c1ccccc1)[C@H](OCC1CC1)c1ccc(F)cc1 (racemic) [Example 21] has a pIC50 of 6.10.
With O=C1CCCN1[C@@H](c1ccccc1)[C@H](OCCCC(F)(F)F)c1ccc(Cl)cc1 (racemic) [Example 22] the pIC50 was 6.30.
In the case of O=C1CCCN1[C@@H](c1ccc(F)cc1)[C@H](OCCCC(F)(F)F)C1CCCCC1 (racemic) [Example 24], the pIC50 was 6.19.
For CCCO[C@@H](c1ccc(F)cc1)[C@H](c1ccccc1)N1CCCC1=O (racemic) [Example 25], the pIC50 was 6.35.
C#CCO[C@H](c1ccc(F)c(F)c1)[C@H](c1ccc(F)cc1)N1C(=O)CCC1C (mixture of isomers) [Example 26] was tested, and the pIC50 was 6.00.
For O=C1CCCN1[C@H](c1ccc(F)cc1)[C@H](OCC1CC1)c1ccc(F)cc1 (racemic) [Example 27], the pIC50 was 6.22.
With CCCO[C@@H](c1ccc(Cl)cc1)[C@H](c1ccccc1)N1CCCC1=O (racemic) [Example 28] the pIC50 was 6.05.
For C[C@](c1ccccc1)([C@H](OCC1CC1)c1ccccc1)N1CCCC1=O (racemic) [Example 29], the pIC50 was 6.05.
With C#CCO[C@H](c1ccc(F)c(F)c1)[C@H](c1ccc(F)cc1)N1CCCCC1=O (racemic) [Example 30] the pIC50 was 5.96.
C[C@@](c1ccccc1)([C@H](OCC1CC1)c1ccccc1)N1CCCC1=O (racemic) [Example 31] was tested, and the pIC50 was 5.85.
O=C1CCCN1[C@@H](c1ccccc1)[C@H](OC1CC1)c1ccccc1 (racemic) [Example 32, 1S,2R-1-(Cyclopropoxy-1,2-diphenylethyl)pyrrolidin-2-one] gave a pIC50 of 6.22.
In the case of CCCO[C@H](c1ccc(F)cc1)[C@@H](c1ccc(F)cc1)N1CCCC1=O (racemic) [Example 33], the pIC50 was 6.05.
In the case of O=C1CCCN1[C@@H](c1ccc(F)cc1)[C@H](OCCCC(F)(F)F)c1ccc(F)c(F)c1 (racemic) [Example 34], the pIC50 was 6.00.
With CC1CCC(=O)N1[C@@H](c1ccc(F)cc1)[C@H](OCC1CC1)c1ccc(F)c(F)c1 (mixture of isomers) [Example 35] the pIC50 was 6.30.
Compound CCCO[C@H](c1ccc(C#N)cc1)[C@H](c1ccc(F)cc1)N1CCCC1=O (racemic) [Example 36] has a pIC50 of 6.22.
Compound O=C1CCCN1[C@@H](c1ccc(F)cc1)[C@H](OCC1CC1)c1cc(F)cc(F)c1 (racemic) [Example 37] has a pIC50 of 6.15.
Work on C#CCO[C@H](c1ccc(F)c(F)c1)[C@H](c1ccc(F)cc1)N1CCCC1=O (racemic) [Example 38] yielded a pIC50 of 6.15.
With O=C1CCCN1[C@H](c1ccc(F)cc1)[C@@H](OCC1CC1)c1cccc2cccnc12 (racemic) [Example 39] the pIC50 was 5.96.
For O=C1CCCN1[C@@H](c1ccccc1)[C@H](OCc1cccc(Cl)c1)c1ccc(Cl)cc1 (racemic) [Example 40], the pIC50 was 6.10.
Compound N#Cc1ccc([C@@H](OCC2CC2)[C@H](c2ccc(F)cc2)N2CCCC2=O)cc1 (racemic) [Example 41] has a pIC50 of 6.00.
O=C1CCCN1[C@@H](c1ccc(F)cc1)[C@H](OCC1CC1)c1ccc(F)c(F)c1 (racemic) [Example 42] gave a pIC50 of 6.22.
Work on O=C1CCCN1[C@H](c1ccc(F)cc1)[C@H](OCCCC(F)(F)F)c1ccc(F)cc1 (racemic) [Example 43] yielded a pIC50 of 5.85.
O=C1CCCN1[C@@H](c1ccccc1)[C@H](OCC1CC1)c1ccc(F)cc1 (racemic) [Example 44] showed a pIC50 of 6.30.
N#Cc1ccc(O[C@H](c2ccc(Cl)cc2)[C@H](c2ccccc2)N2CCCC2=O)cc1 (racemic) [Example 45] showed a pIC50 of 6.00.
For COCCO[C@H](c1ccc(Cl)cc1)[C@H](c1ccccc1)N1CCCC1=O (racemic) [Example 47], the pIC50 was 6.00.
COc1ccc(CO[C@H](c2ccc(F)c(F)c2)[C@H](c2ccc(F)cc2)N2CCCC2=O)cc1 (racemic) [Example 48] gave a pIC50 of 5.68.
For O=C1CCCN1[C@@H](c1ccc(F)cc1)[C@H](OC1CC1)c1ccc(F)c(F)c1 (racemic) [Example 49], the pIC50 was 6.30.
O=C1CCCN1[C@@H](c1ccc(F)cc1)[C@H](OCC1CC1)c1ccc(OC(F)(F)F)cc1 (racemic) [Example 50] showed a pIC50 of 6.05.
For O=C1CCCN1[C@@H](c1ccccc1)[C@H](OCCCC(F)(F)F)c1ccc(F)cc1 (racemic) [Example 51], the pIC50 was 6.05.
Work on O=C1CCCN1[C@@H](c1ccccc1)[C@@H](OCc1ccccc1)c1ccc(F)cc1 (racemic) [Example 53] yielded a pIC50 of 5.74.
In the case of N#Cc1ccc(O[C@H](c2ccc(F)cc2)[C@H](c2cccc3cccnc23)N2CCCC2=O)cc1 (racemic) [Example 55], the pIC50 was 5.96.
Compound CCCCO[C@H](c1ccc(Cl)cc1)[C@H](c1ccccc1)N1CCCC1=O (racemic) [Example 56] has a pIC50 of 6.10.
For O=C1CCCN1[C@@H](c1ccccc1)[C@H](OCc1ccc(Cl)cc1)c1ccc(Cl)cc1 (racemic) [Example 57], the pIC50 was 6.00.
O=C1CCCN1[C@@H](c1ccc(F)cc1)[C@H](OCC1CC1)c1cccnc1 (racemic) [Example 58] showed a pIC50 of 6.00.
COc1ccc([C@@H](Oc2ccc(C#N)cc2)[C@H](c2ccc(F)cc2)N2CCCC2=O)cc1 (racemic) [Example 59] was tested, and the pIC50 was 5.72.
COc1ccc(CO[C@H](c2ccc(Cl)cc2)[C@H](c2ccccc2)N2CCCC2=O)cc1 (racemic) [Example 60] showed a pIC50 of 5.89.
With CS(=O)(=O)c1ccc([C@@H](OCC2CC2)[C@H](c2ccc(F)cc2)N2CCCC2=O)cc1 (racemic) [Example 61] the pIC50 was 5.74.
Compound CC#CCO[C@H](c1ccc(F)c(F)c1)[C@H](c1ccc(F)cc1)N1CCCC1=O (racemic) [Example 62] has a pIC50 of 5.62.
In the case of O=C1CCCN1[C@H](c1ccccn1)[C@H](OCC1CC1)c1ccccc1 (racemic) [Example 63], the pIC50 was 5.77.
Compound CCCO[C@H](c1ccccc1)[C@@H](c1ccccn1)N1CCCC1=O (racemic) [Example 64] has a pIC50 of 5.74.
Compound O=C1CCCN1[C@@H](c1cccnc1)[C@H](OCCCC(F)(F)F)c1ccc(F)cc1 (racemic) [Example 65] has a pIC50 of 5.82.
N#Cc1ccc(O[C@H](c2cccnc2)[C@H](c2cccc3cccnc23)N2CCCC2=O)cc1 (racemic) [Example 66] was tested, and the pIC50 was 5.64.
For CO[C@H](c1ccc(Cl)cc1)[C@H](c1ccccc1)N1CCCCC1=O (racemic) [Example 67], the pIC50 was 5.92.
CCO[C@H](c1ccc(Cl)cc1)[C@H](c1ccccc1)N1CCCC1=O (racemic) [Example 68] showed a pIC50 of 6.30.
